According to patent US6737383B1, “Herbicidal oxadiazolidines” (priority 1999, dated 2004):

Key:
bedstraw = test: Test B pre/postemergence bedstraw; type: in vivo, Galium aparine; conditions: for Bedstraw plant response rating: Postemergence; for Plant response rating, Bedstraw: Preemergence
Summary of the method: (§1)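 Response is a visual 0-to-10 score relative to untreated plants, where 0 means no effect and 10 means complete control, taken twelve to sixteen days after application. Treatments went onto soil at planting and onto foliage of 1- to 4-leaf plants, using a surfactant-containing non-phytotoxic solvent.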

blackgrass = test: Test B pre/postemergence blackgrass; type: in vivo, Alopecurus myosuroides
Summary of the method: as §1

surinam grass = test: Test B pre/postemergence surinam grass; type: in vivo, Brachiaria decumbens
Summary of the method: as §1

cocklebur = test: Test B pre/postemergence cocklebur; type: in vivo, Xanthium strumarium
Summary of the method: as §1

giant foxtail = test: Test B pre/postemergence giant foxtail; type: in vivo, Setaria faberii
Summary of the method: as §1

morningglory = test: Test B pre/postemergence morningglory; type: in vivo, Ipomoea hederacea; conditions: for Morningglory plant response rating: Postemergence; for Plant response rating, Morningglory: Preemergence
Summary of the method: as §1

pigweed = test: Test B pre/postemergence pigweed; type: in vivo, Amaranthus retroflexus
Summary of the method: as §1

rape = test: Test B pre/postemergence rape; type: in vivo, Brassica napus
Summary of the method: as §1

soybean = test: Test B pre/postemergence soybean; type: in vivo, Glycine max
Summary of the method: as §1

sugar beet = test: Test B pre/postemergence sugar beet; type: in vivo, Beta vulgaris
Summary of the method: as §1

wheat = test: Test B pre/postemergence wheat; type: in vivo, Triticum aestivum
Summary of the method: as §1

wild oat = test: Test B pre/postemergence wild oat; type: in vivo, Avena fatua
Summary of the method: as §1

purple nutsedge = test: Test B pre/postemergence purple nutsedge; type: in vivo, Cyperus rotundus
Summary of the method: as §1

smallflower flatsedge = test: Test B flood test smallflower flatsedge; type: in vivo, Cyperus difformis
Summary of the method: (§2)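 Plants were grown to the 2-leaf stage before treatment with test chemical, then held in a greenhouse for twelve to sixteen days. Injury was visually rated against untreated controls on a 0–10 scale, where 0 is no effect and 10 is complete control.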

duck salad = test: Test B flood test duck salad; type: in vivo, Heteranthera limosa
Summary of the method: as §2

bamyardgrass = test: Test B flood test barnyardgrass; type: in vivo, Echinochloa crus-galli
Summary of the method: as §2

[1] = Rate 62 g/ha, scale 0 to 10, 0 is no effect, 10 is complete control
[2] = Rate 125 g/ha, scale 0 to 10 (0 no effect, 10 complete control)
[3] = Rate 250 g/ha, scale of 0 to 10 where 0 is no effect and 10 is complete control
[4] = Rate 125 g/ha, scale 0 to 10, 0 no effect, 10 complete control
[5] = Postemergence, Rate 62 g/ha, scale 0 to 10, 0 is no effect, 10 is complete control
[6] = Postemergence, Rate 250 g/ha, scale 0 to 10, 0 no effect, 10 complete control
[7] = Preemergence, Rate 62 g/ha, scale 0 to 10, 0 is no effect, 10 is complete control
[8] = Preemergence, Rate 125 g/ha, scale 0 to 10 (0 no effect, 10 complete control)
[9] = Preemergence, Rate 250 g/ha, scale of 0 to 10 where 0 is no effect and 10 is complete control
[10] = Preemergence, Rate 500 g/ha, scale 0 (no effect) to 10 (complete control)
[11] = Rate 125 g/ha, Postemergence, scale 0 to 10, 0 no effect, 10 complete control
[12] = Rate 500 g/ha, Postemergence, scale 0 to 10, 0 no effect, 10 complete control
[13] = Rate 125 g/ha, Postemergence section (flood test species), scale 0 to 10, 0 no effect, 10 complete control
[14] = Rate 500 g/ha, listed under Postemergence (flood test species), scale 0 to 10, 0 no effect, 10 complete control
[15] = flood test, listed under Postemergence, Rate 250 g/ha, scale 0 to 10, 0 no effect, 10 complete control

Cc1cccc(Cl)c1-n1c(=O)on(C(=O)N(c2ccc(F)cc2)C(C)C)c1=O [Compound 53]
Bedstraw plant response rating (bedstraw; [1]): 2 | Plant response rating, Bedstraw (bedstraw; [1]): 0 | Plant response rating, Bedstraw (bedstraw; [2]): 0 | Plant response rating, Bedstraw (bedstraw; [3]): 0 | Bedstraw plant response rating (bedstraw; [4]): 3 | Blackgrass plant response rating (blackgrass; [5]): 0 | Blackgrass plant response rating (blackgrass; [6]): 0 | Plant response rating, Blackgrass (blackgrass; [7]): 0 | Plant response rating, Blackgrass (blackgrass; [8]): 1 | Plant response rating, Blackgrass (blackgrass; [9]): 1 | Blackgrass plant response rating (blackgrass; [10]): 4 | Blackgrass plant response rating (blackgrass; [11]): 0 | Blackgrass plant response rating (blackgrass; [12]): 0 | B. signalgrass plant response rating (surinam grass; [5]): 0 | B. signalgrass plant response rating (surinam grass; [6]): 0 | Plant response rating, B. signalgrass (surinam grass; [7]): 0 | Plant response rating, B. signalgrass (surinam grass; [8]): 0 | Plant response rating, B. signalgrass (surinam grass; [9]): 2 | B. signalgrass plant response rating (surinam grass; [10]): 3 | B. signalgrass plant response rating (surinam grass; [11]): 0 | B. signalgrass plant response rating (surinam grass; Rate 500 g/ha, Postemergence, scale of 0 to 10 where 0 is no effect and 10 is complete control): 0 | Cocklebur plant response rating (cocklebur; [5]): 0 | Cocklebur plant response rating (cocklebur; [6]): 4 | Plant response rating, Cocklebur (cocklebur; [7]): 0 | Plant response rating, Cocklebur (cocklebur; [9]): 0 | Cocklebur plant response rating (cocklebur; [10]): — 0 0 0 0 | Cocklebur plant response rating (cocklebur; [11]): 0 | Cocklebur plant response rating (cocklebur; [12]): 4 | Giant foxtail plant response rating (giant foxtail; [5]): 0 | Giant foxtail plant response rating (giant foxtail; [6]): 3 | Plant response rating, Giant foxtail (giant foxtail; [7]): 3 | Plant response rating, Giant foxtail (giant foxtail; [8]): 3 | Plant response rating, Giant foxtail (giant foxtail; [9]): 8 | Giant foxtail plant response rating (giant foxtail; [10]): 10 | Giant foxtail plant response rating (giant foxtail; [11]): 3 | Giant foxtail plant response rating (giant foxtail; [12]): 3 | Morningglory plant response rating (morningglory; [1]): 1 | Morningglory plant response rating (morningglory; Rate 250 g/ha, scale 0 to 10, 0 no effect, 10 complete control): 5 | Plant response rating, Morningglory (morningglory; [1]): 0 | Plant response rating, Morningglory (morningglory; [2]): 0 | Plant response rating, Morningglory (morningglory; [3]): 0 | Morningglory plant response rating (morningglory; [4]): 1 | Morningglory plant response rating (morningglory; Rate 500 g/ha, scale 0 to 10, 0 no effect, 10 complete control): 6 | Redroot pigweed plant response rating (pigweed; [5]): 1 | Redroot pigweed plant response rating (pigweed; [6]): 6 | Plant response rating, Redroot pigweed (pigweed; [7]): 0 | Plant response rating, Redroot pigweed (pigweed; [8]): 0 | Plant response rating, Redroot pigweed (pigweed; [9]): 0 | Redroot pigweed plant response rating (pigweed; [10]): 3 | Redroot pigweed plant response rating (pigweed; [11]): 3 | Redroot pigweed plant response rating (pigweed; [12]): 10 | Rape plant response rating (rape; [5]): 0 | Rape plant response rating (rape; [6]): 0 | Plant response rating, Rape (rape; [7]): 0 | Plant response rating, Rape (rape; [8]): 0 | Plant response rating, Rape (rape; [9]): 0 | Rape plant response rating (rape; [10]): 0 | Rape plant response rating (rape; [11]): 0 | Rape plant response rating (rape; [12]): 3 | Soybean plant response rating (soybean; [5]): 3 | Soybean plant response rating (soybean; [6]): 3 | Plant response rating, Soybean (soybean; [7]): 0 | Plant response rating, Soybean (soybean; [8]): 0 | Plant response rating, Soybean (soybean; [9]): 0 | Soybean plant response rating (soybean; [10]): 0 | Soybean plant response rating (soybean; [11]): 3 | Soybean plant response rating (soybean; [12]): 3 | Sugarbeets plant response rating (sugar beet; [5]): 0 | Sugarbeets plant response rating (sugar beet; [6]): 1 | Plant response rating, Sugarbeets (sugar beet; [7]): 0 | Plant response rating, Sugarbeets (sugar beet; [8]): 0 | Plant response rating, Sugarbeets (sugar beet; [9]): 0 | Sugarbeets plant response rating (sugar beet; [10]): 3 | Sugarbeets plant response rating (sugar beet; [11]): 0 | Sugarbeets plant response rating (sugar beet; [12]): 2 | Wheat plant response rating (wheat; [5]): 0 | Wheat plant response rating (wheat; [6]): 0 | Plant response rating, Wheat (wheat; [7]): 0 | Plant response rating, Wheat (wheat; [8]): 0 | Plant response rating, Wheat (wheat; [9]): 0 | Wheat plant response rating (wheat; [10]): 0 | Wheat plant response rating (wheat; [11]): 0 | Wheat plant response rating (wheat; [12]): 0 | Wild oats plant response rating (wild oat; [5]): 0 | Wild oats plant response rating (wild oat; [6]): 0 | Plant response rating, Wild oats (wild oat; [8]): 0 | Plant response rating, Wild oats (wild oat; [9]): 0 | Wild oats plant response rating (wild oat; [10]): 0 | Wild oats plant response rating (wild oat; [11]): 0 | Wild oats plant response rating (wild oat; [12]): 2 | Nutsedge plant response rating (purple nutsedge; [5]): 0 | Nutsedge plant response rating (purple nutsedge; [6]): 0 | Plant response rating, Nutsedge (purple nutsedge; [7]): 0 | Plant response rating, Nutsedge (purple nutsedge; [8]): 0 | Plant response rating, Nutsedge (purple nutsedge; [9]): 0 | Nutsedge plant response rating (purple nutsedge; [10]): 0 | Nutsedge plant response rating (purple nutsedge; [11]): 0 | Nutsedge plant response rating (purple nutsedge; [12]): 0 | S. Flatsedge plant response rating (smallflower flatsedge; [5]): 0 | S. Flatsedge plant response rating (smallflower flatsedge; [13]): 0 | S. Flatsedge plant response rating (smallflower flatsedge; [14]): 0 | S. Flatsedge plant response rating (smallflower flatsedge; [15]): 0 | Ducksalad plant response rating (duck salad; [5]): 0 | Ducksalad plant response rating (duck salad; [13]): 0 | Ducksalad plant response rating (duck salad; [14]): 0 | Ducksalad plant response rating (duck salad; [15]): 0 | Barnyardgrass plant response rating (bamyardgrass; [5]): 0 | Barnyardgrass plant response rating (bamyardgrass; [13]): 0 | Barnyardgrass plant response rating (bamyardgrass; [14]): 0 | Barnyardgrass plant response rating (bamyardgrass; [15]): 0
